Assay results from paper PMC11375794, “Discovery of new Hsp90–Cdc37 protein–protein interaction inhibitors: in silico screening and optimization of anticancer activity” (RSC Advances, 2024).

Columns and labels:
full-length Hsp90β = target: T1, full-length Hsp90β (Homo sapiens, UniProt P08238); experiment: Microscale thermophoresis (MST) binding to Hsp90β; details: full-length Hsp90β, absence of Cdc37
T1 construct: For the protein expression of full-length Hsp90β, we received plasmids as a kind gift; made in house; host or cells: Escherichia coli strain Rosetta
T1 sequence (P08238 whole entry): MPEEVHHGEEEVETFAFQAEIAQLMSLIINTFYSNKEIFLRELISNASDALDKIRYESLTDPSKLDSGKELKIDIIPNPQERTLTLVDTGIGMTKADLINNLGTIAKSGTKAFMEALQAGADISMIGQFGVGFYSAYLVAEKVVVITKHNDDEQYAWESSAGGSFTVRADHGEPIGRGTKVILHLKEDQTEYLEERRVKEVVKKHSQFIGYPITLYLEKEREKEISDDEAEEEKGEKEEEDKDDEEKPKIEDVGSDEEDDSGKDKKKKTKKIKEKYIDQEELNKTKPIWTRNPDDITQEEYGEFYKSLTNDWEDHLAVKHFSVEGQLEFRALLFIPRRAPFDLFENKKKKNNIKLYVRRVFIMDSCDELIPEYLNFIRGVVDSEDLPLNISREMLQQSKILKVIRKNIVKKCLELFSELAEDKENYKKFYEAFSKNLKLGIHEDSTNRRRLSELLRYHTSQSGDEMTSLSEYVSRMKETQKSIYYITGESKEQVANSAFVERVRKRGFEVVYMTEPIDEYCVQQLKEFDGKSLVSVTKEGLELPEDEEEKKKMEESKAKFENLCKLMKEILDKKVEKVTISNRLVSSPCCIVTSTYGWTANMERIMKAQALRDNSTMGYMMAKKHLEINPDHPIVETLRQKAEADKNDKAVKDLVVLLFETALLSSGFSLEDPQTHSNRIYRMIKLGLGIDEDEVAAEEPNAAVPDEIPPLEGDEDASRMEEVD
Description: For the protein expression of full-length Hsp90β, we received plasmids as a kind gift from Dr Asta Zubriené at the Institute of Biotechnology, Vilnius University, Lithuania. Hsp90β, tagged with N-terminal 6×His-tag, was expressed in Escherichia coli strain Rosetta. The cells were cultured in LB media supplemented with kanamycin (50 μg mL^−1) and chloramphenicol (34 μg mL^−1) at 37 °C, and protein expression was initiated with 0.5 mM isopropyl β-D-1-thiogalactopyranoside (IPTG) when the OD600 reached 0.8. Following induction, the cells were incubated for 16 hours at 18 °C before being harvested by centrifugation. The cells were resuspended in a lysis buffer containing 40 mM potassium phosphate pH 8.0, 400 mM KCl, 10 mM imidazole, and protease inhibitors (Sigma), and then lysed by sonication. After centrifugation, the proteins were initially purified using a Ni^2+-affinity HisTrap column (GE Healthcare). Impurities were washed away with lysis buffer containing 20–40 mM imidazole, and Hsp90β was subsequently eluted with lysis buffer containing 300 mM imidazole. The purification process continued with size exclusion chromatography (SEC) using a Superdex-200 (16/600) column (GE Healthcare) and a running buffer of 50 mM Tris pH 7.5 at room temperature, 300 mM KCl. The purity of the fractions was confirmed by SDS-PAGE, and they were then concentrated. For the NMR experiments, Hsp90β was dialyzed against NMR buffer (50 mM potassium phosphate pD 7.5, 100 mM KCl, 2 mM DTT (98%, D10) in D2O) and subsequently frozen in liquid nitrogen.
The full-length Hsp90β was labeled using the Monolith His-Tag Labeling Kit RED-tris-NTA following the manufacturer's instructions (NanoTemper Technologies GmbH, Munich, Germany). The proteins were first diluted to a concentration of 8 nM in assay buffer (50 mM Tris–HCl, pH 7.4, containing 150 mM NaCl, 5% ethanol, and 10 mM MgCl2). To determine the Kd values, the proteins were mixed with the test compounds in a 1 : 1 ratio as stated in the manufacturers protocol. The final concentration of Hsp90β was 4 nM, with compounds added in the following ranges: 1000 μM to 5.86 μM for 8c; 312.5 μM to 0.15 μM for 13g and 125 μM to 3.91 μM for 1. Two independent Kd determinations were performed for compounds 8c and 13g. […] Next, Cdc37 (AR09008PUN, OriGene Technologies, Inc., Rockville, MD, USA) was acquired for the purpose of PPI inhibition evaluation between full-length Hsp90β and Cdc37. […] In all experiments the compounds were incubated with the proteins for 15 minutes in the dark at room temperature. The mixtures were then loaded into Monolith NT.115 Premium Capillaries (NanoTemper Technologies GmbH, Munich, Germany). Thermophoresis was induced at 1475 ± 15 nm and measured using a Monolith NT.115 pico instrument (NanoTemper Technologies GmbH, Munich, Germany). Measurements were conducted at ambient temperature (24–25 °C), with excitation power set to 20% and MST power set to 40%, and a laser on time of 5 seconds. To calculate the Kd values, the average fluorescence responses for each concentration were plotted against the logarithm of compound concentrate on using GraphPad Prism software (GraphPad Software, Inc., La Jolla, CA).

[1] = system: MCF-7 breast cancer cell line; experiment: MTS cell viability (antiproliferative) assay in MCF-7; type: cell-based; details: Homo sapiens, MCF7, 72 h, MTS assay, 72 hours, mean ± SD
Description: (§1) Hormone-positive breast cancer cell line MCF-7 (ATCC-HTB-22; ATCC) was grown in Dulbecco's Modified Eagle's Medium (DMEM), while Ewing sarcoma cell line SK-N-MC (a kind gift from Beat Schäfer) and THP-1 (ATCC-TIB-202; ATCC) cells were grown in Roswell Park Memorial Institute (RPMI) 1640. The medium was supplemented with 10% heat-inactivated fetal bovine serum (Gibco, Thermo Fisher Scientific, Waltham, MA, USA), 100 U per mL penicillin, 100 μg per mL streptomycin, and 2 mM L-glutamine (all from Sigma-Aldrich, St. Louis, MO, USA). All cell lines were incubated at 37 °C in a 5% CO2 atmosphere.
(§2) The antiproliferative activity of the compounds was evaluated against MCF-7 (ATCC-HTB-22; ATCC), SK-N-MC (a kind gift from Beat Schäfer) and THP-1 (ATCC-TIB-202; ATCC) cancer cell lines using the MTS assay (Promega, Madison, WI, USA). Cells were seeded in 96-well plates at a density of 2 × 10^4 cells per mL in 100 μL of growth medium for THP-1 and were treated with compounds and controls directly, while 3 × 10^3 cells per mL for MCF-7 and SK-N-MC were seeded in 100 μL of growth medium and allowed to adhere overnight following the treatment. In all cases the cells were treated with respective newly prepared compounds, positive controls (17-DMAG for MCF-7 and SK-N-MC; PU-H71 for THP-1) and a vehicle control (0.5% DMSO). The incubation time after treatment was 72 hours, then CellTiter96® Aqueous One Solution Reagent (Promega, Madison, WI, USA) was added to each well. Following a 3 hours incubation, absorbance was measured at 492 nm using BioTek's Synergy™ 4 Hybrid Microplate Reader (Winooski, VT, USA). The measurements were performed in two biological repetitions and each time the experiment was performed in a triplicate. The IC50 values, representing the concentration of inhibitor required for half-maximal inhibition, are the average of three independent experiments and were calculated using GraphPad Prism 9.5.0 software (San Diego, CA, USA).

leukemia cell line THP-1 = experiment: MTS cell viability (antiproliferative) assay in THP-1; type: cell-based; details: mean ± SD; for THP-1 IC50: 72 hours; for IC50: Homo sapiens, THP-1, 72 hours
Description: as §1, §2

Row | Kd (full-length Hsp90β) [µM] | IC50 [1] [µM] | THP-1 IC50 (leukemia cell line THP-1) | IC50 (leukemia cell line THP-1) [µM] | Structure (SMILES)
1 | 73.3 | 19.3 ± 2 | retained some inhibitory activity | 41.5 ± 6.3 | O=C(NCCOc1ccccc1)c1ccc(Nc2cc(N3CCNCC3)ncn2)cc1 [Compound 13g, N-(2-Phenoxyethyl)-4-((6-(piperazin-1-yl)pyrimidin-4-yl)amino)benzamide]
2 | 70.8 | 20 ± 1.2 | retained some inhibitory activity | 33.9 ± 8.5 | CN(CCOc1ccccc1)C(=O)c1csc(Nc2cc(N3CCNCC3)ncn2)n1 [Compound 8c, N-Methyl-N-(2-phenoxyethyl)-2-((6-(piperazin-1-yl)pyrimidin-4-yl)amino)thiazole-4-carboxamide]
